The numbers were not newly measured in article PMC11481577, “Allosteric coupling of substrate binding and proton translocation in MmpL3 transporter from Mycobacterium tuberculosis” (mBio, 2024), which cites them from elsewhere.

The target of this data set is MmpL3. Conditions: previously measured; read-out: affinity to MmpL3; cited from earlier work.

As to phosphatidylethanolamine [PE], the Kd was 19.5 ± 6.3 µM.
trehalose monomycolates [TMM]: the Kd was 3.7 ± 1.3 µM.
